Animals died, LD50 and ED35 data for 7 molecules are collected here from patent publication US4021479A, “Derivatives of 4-(4-biphenylyl)-butyric acid” (Boehringer Ingelheim GmbH, priority 1971, dated 1977).

Common to all, as to format: in vivo
Data set [1] relates to adult laboratory rats. Kind of data set: acute toxicity (LD50) in adult laboratory rats. To be noted: p.o., rats, printed in parentheses under the LD50 bound; observation period of 14 days. Here is the method:
(§1) The acute toxicities of the compounds (LD50) were determined in adult laboratory rats from the percentage of animals which died after administration of varying doses within an observation period of 14 days [see J. Pharmacol. exper. Therap. 96, 99 1949)].

A short description of data set [2]: acute toxicity (LD50) in adult laboratory rats. The following applies: rat, in vivo, po, adult rats, observation period of 14 days. Here is the method: as §1
The test system of data set [3] is kaolin-induced edema in the hind paw of rats. Kind of data set: antiexudative action against the kaolin-induced edema in the hind paw of rats (Hillebrecht). To be noted: Rattus norvegicus, po, dose which produces a 35% reduction in the edematous swelling. As for the experimental part:
The antiphlogistic activity of the compounds of the present invention was ascertained by the standard test method Hillebrecht described in Arzneimittelforschung 4, 607-614 (1954), i.e. in terms of the antiexudative action against the kaolin-induced edema in the hind paw of rats. The measurements were carried out by the method of Doepfner and Cerletti, Int. Arch. Allergy and Appl. Immunology 12, 89-97 (1958). The data thus obtained were plotted on a dose-activity graph, and from the resulting curve the dose which produces a 35% reduction in the edematons swelling (ED35) was graphically calculated for each compound.

Where a name gives a salt, the structure may show the parent alone.

As to `O=C(O)CCC(O)c1ccc(-c2ccccc2[N+](=O)[O-])cc1` (centres unmarked) [A, cyclohexylamine salt of 4-(2'-nitro-4-biphenylyl)-4-hydroxy-butyric acid], the animals died in data set [1] is on record as 0 out of 5. Besides, in data set [2], the LD50 (commonly the dose at which mortality reaches 50%) at 336 h was more than 500 mg/kg. The molecule further came in with an ED35 in data set [3] of 30 mg/kg.

In data set [2], `Nc1ccccc1-c1ccc(C(O)CCC(=O)O)cc1` (centres unmarked) [B, cyclohexylamine salt of 4-(2'-amino-4-biphenylyl)-4-hydroxy-butyric acid] yielded an LD50 at 336 h of 1340 mg/kg. The molecule also had an ED35 in data set [3] of 66 mg/kg.

For the molecule `O=C(O)CCCc1ccc(-c2ccccc2[N+](=O)[O-])cc1` [C, cyclohexylamine salt of 4-(2'-nitro-4-biphenylyl)-butyric acid], the animals died in data set [1] is on record as 3 out of 10. Moreover, the 50% lethal dose (LD50) at 336 h in data set [2] is more than 1000 mg/kg. The ED35 in data set [3] was found to be 66 mg/kg.

On to `O=C(O)CCC(O)c1ccc(-c2ccccc2Cl)cc1` (centres unmarked) [Compound E, cyclohexylamine salt of 4-(2'-chloro-4-biphenylyl)-4-hydroxy-butyric acid], for which the animals died in data set [1] is 1 out of 10. Also, the LD50 at 336 h in data set [2] is more than 1000 mg/kg. In data set [3], this molecule gave an ED35 of 27 mg/kg.

On to `O=C(O)CCCc1ccc(-c2ccccc2F)cc1` [D, cyclohexylamine salt of 4-(2'-fluoro-4-biphenylyl)-butyric acid], for which, in data set [1], the animals died is 0 out of 10. The molecule also showed an LD50 at 336 h in data set [2] of more than 500 mg/kg. For the same molecule, the ED35 in data set [3] stood at 37 mg/kg.

Regarding `O=C(O)CCCc1ccc(-c2ccccc2Cl)cc1` [F, cyclohexylamine salt of 4-(2'-chloro-4-biphenylyl)-butyric acid], the animals died in data set [1] is listed as 2 out of 10. The same molecule showed an LD50 at 336 h in data set [2] of more than 1000 mg/kg. The same molecule registered an ED35 in data set [3] of 50 mg/kg.

Take `O=C(O)CCCc1ccc(-c2ccc([N+](=O)[O-])cc2)cc1` [G, cyclohexylamine salt of 4-(4'-nitro-4-biphenylyl)-butyric acid]: the animals died in data set [1] is 0 out of 10. Besides, in data set [2], the LD50 at 336 h is more than 1000 mg/kg. In data set [3], this molecule showed an ED35 of 30 mg/kg.
